Measurements from patent US10123983B2, “DNA methyltransferases for the treatment and prevention of arthritis” (Washington University, priority 2015, dated 2018).

How the values were obtained:
[1] = tested on: Primary articular chondrocytes from 2 mo WT mice; assay: Succinate concentration assay; format: cell-based, mouse; conditions: 1 mM diethyl succinate, 48 h
Description: FIG. 15 depicts a graph showing cellular succinate levels in murine chondrocytes. Primary articular chondrocytes from 2 mo WT mice were treated with 1 mM diethyl succinate or vehicle for 48 h.
Succinate concentration assay. Primary articular chondrocytes isolated from 2 mo WT mice were treated with vehicle or diethylsuccinate (1 mM) for 48 h. Intracellular succinate concentration was measured using the succinate colorimetric assay kit following the manufacturer's instruction (Sigma, #MAK184-1KT).

WT murine PACs [2] = assay: Mitochondria stress test (Seahorse XF Extracellular Flux Analyzer) after succinate treatment; format: cell-based, mouse; conditions: 1 mM diethyl succinate, 48 h
Description: FIG. 13A, FIG. 13B, FIG. 13C, FIG. 13D, FIG. 13E, FIG. 13F, FIG. 13G, FIG. 13H, FIG. 13I, FIG. 13J, FIG. 13K, FIG. 13L, FIG. 13M and FIG. 13N depict graphs showing mitochondria function and cellular homeostasis in Dnmt3b LOF chondrocytes. Primary articular chondrocytes were isolated from 2 mo Dnmt3b^f/f mice and infected with Ad5-Cre (Dnmt3b LOF) or Ad5-GFP (Ctrl) for 48 h. (FIG. 13A, FIG. 13B, FIG. 13C) Mitochondrial respiration was measured by the Seahorse XF Extracellular Flux Analyzer. Basal respiration and maximal respiration, as measured by the oxygen consumption rate (OCR) are shown. (FIG. 13D, FIG. 13E, FIG. 13F) TCA metabolite (succinate, fumarate) and NADH analysis by HPLC-MS. (FIG. 13G, FIG. 13H, FIG. 13I) Mitochondrial metabolism analysis was measured in 2 mo WT cells treated with either 1 mM diethyl succinate or vehicle for 48 h by the Seahorse XF Extracellular Flux Analyzer. (FIG. 13J) Chondrocyte gene expression in response to succinate treatment was analyzed by qPCR. (FIG. 13K, FIG. 13L, FIG. 13M) Mitochondrial respiration analysis in BMP-2-treated 2 mo WT chondrocytes in the presence or absence antimycin A+rotenone for 48 h. […]
Metabolite analysis and mitochondria stress test. […] Metabolites were analyzed by LC-MS/MS as previously described^60. […] At the end of the assays, protein concentrations were measured for normalization.

WT murine PACs [3] = assay: Chondrocyte gene expression in response to succinate treatment (qPCR); format: cell-based, mouse
Description: FIG. 13A, FIG. 13B, FIG. 13C, FIG. 13D, FIG. 13E, FIG. 13F, FIG. 13G, FIG. 13H, FIG. 13I, FIG. 13J, FIG. 13K, FIG. 13L, FIG. 13M and FIG. 13N depict graphs showing mitochondria function and cellular homeostasis in Dnmt3b LOF chondrocytes. Primary articular chondrocytes were isolated from 2 mo Dnmt3b^f/f mice and infected with Ad5-Cre (Dnmt3b LOF) or Ad5-GFP (Ctrl) for 48 h. (FIG. 13A, FIG. 13B, FIG. 13C) Mitochondrial respiration was measured by the Seahorse XF Extracellular Flux Analyzer. Basal respiration and maximal respiration, as measured by the oxygen consumption rate (OCR) are shown. (FIG. 13D, FIG. 13E, FIG. 13F) TCA metabolite (succinate, fumarate) and NADH analysis by HPLC-MS. (FIG. 13G, FIG. 13H, FIG. 13I) Mitochondrial metabolism analysis was measured in 2 mo WT cells treated with either 1 mM diethyl succinate or vehicle for 48 h by the Seahorse XF Extracellular Flux Analyzer. (FIG. 13J) Chondrocyte gene expression in response to succinate treatment was analyzed by qPCR. (FIG. 13K, FIG. 13L, FIG. 13M) Mitochondrial respiration analysis in BMP-2-treated 2 mo WT chondrocytes in the presence or absence antimycin A+rotenone for 48 h. (FIG. 13N) Analysis of chondrocyte gene expression in response to BMP-2 treatment+/−antimycin A+rotentone (0.1 μM).
Real-time PCR and western blot. RNA was isolated from ATDC-5 chondrocytes or primary articular chondrocytes using RNeasy Mini kit (Qiagen). cDNA synthesis and real-time RT-PCR was performed according to manufacturer's instructions. Western blot analyses were conducted on the protein of lysates from either ATDC-5 cells or primary (murine or human) articular chondrocytes. The following primary antibodies were used: pSmad1/5 (Cell Signaling technology Inc., 1:500), pSmad2 (Cell Signaling technology Inc., 1:1000), Smad1/5/8 (Cell Signaling technology Inc., 1:1000), Smad2 (Cell Signaling technology Inc., 1:1000), DNMT3A (LSBio, 1:1000), DNMT3B (LSBio, 1:1000), FLAG (Life technology, 1:1000) and β-actin (Sigma, 1:2000).

[4] = rodents, within the proposed dosage range; literature study (99); cited from earlier work
Dnmt3b LOF chondrocytes = assay: Vigabatrin treatment of Dnmt3b LOF primary articular chondrocytes, hypertrophic marker expression; format: cell-based, mouse
Description: FIG. 23A, FIG. 23B and FIG. 23C depict ablation of Dnmt3b in articular chondrocytes (ACs). Primary Acs from Dnmt3b^f/f mice were infected with Ad5-Cre or Ad-GFP for 48 hr and cultured for a further 48 hr with or without vigabatrin (500μM).
To determine if this effect is dependent upon increased Abat expression, experiments were performed using vigabatrin to inhibit Abat activity in articular chondrocytes. […] Work will comprehensively investigate the role of Abat in controlling both metabolism and hypertrophic/catabolic responses in articular chondrocytes, and define its role in the development of OA.

[5] = tested on: primary articular chondrocytes; assay: Cytokine-induced chondrocyte hypertrophy measured by ALP activity; format: cell-based, mouse; conditions: cytokine treatment
Description: FIG. 24 depicts Dnmt3b gain-of-function attenuates IL-1β-induced chondrocyte hypertrophy. Primary ACs from 2 mo Dnmt3b GOF mice were treated with vehicle or doxycycline (10 μg/ml) for 24 hr. Medium without or with IL-1β (1 ng/ml) was added for 48 hr and ALP staining performed using NBT/BCIP substrate solution.
Hypertrophic characteristics, as measured by ALP activity, were induced in primary articular chondrocytes by treatment with either IL-1β or TNF-α. Dnmt3b GOF was induced by transfecting a plasmid expressing full-length Flag-tagged Dnmt3b cDNA. Western blot confirmed protein over-expression (data not shown). […] Similar results were shown in the TNF-α experiment (results not shown)

[6] = tested on: murine WT primary articular chondrocytes; assay: IL-1β induction of murine WT primary articular chondrocytes, Dnmt3b expression; format: cell-based, mouse; conditions: IL-1β induction 48 h
From the text: (§1) FIG. 4A, FIG. 4B, FIG. 4C, FIG. 4D, FIG. 4E and FIG. 4F depict sequences, graphs and a nucleic acid gel and immunoblot showing IL-1β regulation of Dnmt3b is mediated in part by NF-κB. (FIG. 4A) Sequence alignment and conservation of an NF-κB binding site (red) in the promoter region of the Dnmt3b gene of different species. Mouse—SEQ ID NO:1; Human—SEQ ID NO:2; Dog; SEQ ID NO:3; Horse—SEQ ID NO:4. […] Reduced luciferase activity is attenuated when ATDC-5 cells were transfected with a reporter plasmid containing a mutated NF-κB binding site ([…]; SEQ ID NO:5). […] (FIG. 4E, FIG. 4F) Dnmt3b mRNA and protein levels were reduced in murine WT primary articular chondrocytes (extracted from 3 mo murine knee joints) following IL-1β induction (48 h).
Real-time PCR and western blot. RNA was isolated from ATDC-5 chondrocytes or primary articular chondrocytes using RNeasy Mini kit (Qiagen). cDNA synthesis and real-time RT-PCR was performed according to manufacturer's instructions. Western blot analyses were conducted on the protein of lysates from either ATDC-5 cells or primary (murine or human) articular chondrocytes. […]

Dnmt3b promoter = Dnmt3b promoter luciferase assay; format: cell-based, mouse; conditions: ATDC-5 cells, IL-1β 1 ng/ml, 24 h, versus untreated control
From the text: as §1
Dnmt3b promoter luciferase assay. ATDC-5 cells were transfected with a pGL4 luciferase plasmid containing cDNA encoding 1 kb of the murine Dnmt3b promoter using X-tremeGENE transfection reagents (Roche, #06366236001). A Dnmt3b promoter construct containing mutations in the predicted NFκB binding site was also transfected into an additional set of ATDC-5 cells. All transfected cells were then treated with IL-1β (1 ng/ml) for 24 h before performing the luciferase assay.

[7] = tested on: human primary articular chondrocytes; assay: IL-1β treatment of human primary articular chondrocytes, gene and protein expression; format: cell-based
From the text: FIG. 1A, FIG. 1B, FIG. 1C, FIG. 1D, FIG. 1E, FIG. 1F, FIG. 1G, FIG. 1H, FIG. 1I, FIG. 1J, FIG. 1K, FIG. 1L and FIG. 1M depict images, graphs and an immunoblot showing Dnmt3b expression in murine and human knee joint cartilage. (FIG. 1A, FIG. 1B) Dnmt3a is not expressed in chondrocytes from 3 mo WT articular cartilage [(FIG. 1B) represents a magnified image of the boxed region in (FIG. 1A)]. (FIG. 1C) Dnmt3a expression in pancreas tissue (positive control). (FIG. 1D, FIG. 1E, FIG. 1F) Robust expression of Dnmt3b in chondrocytes of 3 mo WT articular cartilage and lower expression in underlying growth plate cartilage; [(FIG. 1E) represents a magnified image of the dashed boxed area of articular cartilage in (FIG. 1D); (FIG. 1F) represents a magnified image of the solid boxed area of growth plate cartilage in (FIG. 1D)]. Dnmt3b expression is also shown in: (FIG. 1G) 3 mo versus 27 mo WT murine knee articular cartilage; (FIG. 1H) 14 wk old murine articular cartilage following MLI surgery compared to cartilage from sham control knees; (FIG. 1I) 14 wk murine articular cartilage in mice fed a high fat diet (HFD) compared to controls (Ctrl) fed a normal diet. (FIG. 1J) Two representative images showing DNMT3B expression in human healthy articular cartilage or osteoarthritic cartilage tissue sections. (FIG. 1K) Reduced DNMT3B expression in human primary OA chondrocytes compared to healthy chondrocytes). […] All scale bars, 100 μm.
FIG. 3A and FIG. 3B depict graphs showing altered anabolic and catabolic gene expression in IL-1β-treated human primary chondrocytes. Reduced COL2A1 (FIG. 3A) and increased MMP13 (FIG. 3B) expression following IL-1β treatment (48 h) of human primary articular chondrocytes isolated from total knee replacement surgeries.
Full thickness sections of human articular cartilage were removed from the femoral condyles and tibial plateaus of specimens obtained following total knee replacement surgery, diced into 2 mm cubes and digested in sterile spinner flasks for 90 min at 37° C. in pronase digestion buffer [DMEM/F12 (Gibco); 5% FBS (Atlanta Biologicals), 2% penicillin/streptomycin (Gibco) and 0.4% pronase (Roche)]. Following washes in HBSS (Gibco), tissue was further digested in collagenase digestion buffer at 37° C. [DMEM/F12; 5% FBS; 2% penicillin/streptomycin; 0.035% collagenase P (Roche)] for 14-16 hr. Cells were collected, filtered through 70 μm cell strainers (VWR) and plated at a density of 100,000 cells/cm^2. After 24 hr, chondrocytes were treated with IL-1β (10 ng/ml; Gibco) for 48 hr. Total RNA was collected using the Total RNA prep kit (Norgen Biotek) and cDNA was synthesized using Superscript RT II (Life Technologies).
Real-time PCR and western blot. […]

[8] = Abat inhibition with vigabatrin

## CCOC(=O)CCC(=O)OCC [diethyl succinate]
[1]
  cellular succinate levels: Increased levels of cellular succinate
WT murine PACs [2]
  basal respiration (OCR): increased
  maximal respiration (OCR): increased
WT murine PACs [3]
  Col2a1 expression: decreased
  Mmp13 expression: increase
  Runx2 expression: increase

## C=CC(N)CCC(=O)O (stereo not drawn) [vigabatrin]
[4]
  side effects: did not report any side effects
Dnmt3b LOF chondrocytes; [8]
  Col10a1 expression in Dnmt3b LOF chondrocytes: attenuates the increased expression
  Mmp13 expression in Dnmt3b LOF chondrocytes: attenuates the increased expression
  Runx2 expression in Dnmt3b LOF chondrocytes: attenuates the increased expression
Dnmt3b LOF chondrocytes; in vitro administration
  catabolic responses in chondrocytes: can block catabolic responses
Dnmt3b LOF chondrocytes; vigabatrin 500μM, 48 hr, primary ACs from Dnmt3b f/f mice infected with Ad5-Cre
  hypertrophic gene expression induced by Dnmt3b LOF: partially attenuated

## TNF-α
[5]
  hypertrophic characteristics, as measured by ALP activity: induced

## IL-1β: pro-inflammatory cytokine
[6]
  Dnmt3b mRNA level: reduced
  Dnmt3b protein level: reduced
Dnmt3b promoter
  luciferase expression of Dnmt3b promoter reporter: Reduced luciferase expression
[5]
  hypertrophic characteristics, as measured by ALP activity: induced
[7]; IL-1β 10 ng/ml, 48 hr
  DNMT3B mRNA expression: decreased
  DNMT3B protein expression: decreased
[7]; IL-1β treatment 48 h
  COL2A1 expression: Reduced
  MMP13 expression: increased
